Experiments:
[1] = tested on: primary fibroblasts, immortalized fibroblasts, cancer cells; assay: Scratch wound cell invasion assay through Matrigel; type: cell-based, human
Procedure: The scratch wound cell invasion assay was used to measure the ability of indicated cells to invade through Matrigel® basement membrane. Pictures were taken every 2 hours over 4 days using a time-lapse microscope and wound closure over time is presented in charts.
96-well ImageLock plates were coated with 0.1 mg/ml growth factor reduced Matrigel® and incubated for 1 h at 37° C. Cells were seeded a density of 10,000-40,000 cells/well in 100 μL/well and incubated overnight. Next day wounds were simultaneously created in all wells using the WoundMaker. After wounding, media was aspirated from each well and cells were washed twice with PBS. For invasion cells were overlayed with 50 μL of the Matrigel® top layer at 3mg/ml and incubated for 30 min at 37° C. […] Cell plates were placed into the IncuCyte live-cell analysis system and each well imaged using 10× objective every 2 hours for the total of 5-days. Images were analysed using IncuCyte scratch wound protocol and results presented as percentage of wound confluence.

[2] = tested on: primary fibroblasts, cancer cells, immortalized fibroblasts; assay: intracellular VEGF ELISA in cell lysates; type: cell-based, human; settings: 48 h
Procedure: For the co-culture experiments, 5×10^4 cancer cells were seeded in transwell in 0.5 mL complete growth medium and placed on the top of 0.1×10^6 fibroblasts plated in 12-well in 1 mL low serum growth media overnight. Following day cancer cells were washed with PBS and media replaced with reduced (1%) serum growth media. 0.5×10^6 PBMC were plated on top of fibroblasts, incubated for 45 min and activated with CD3 (1 μg/ml final concentration) and CD28 (5 μg/ml final concentration). […] Monoculture experiments, 0.1×10^6 cells were seeded in 12-well in 1 mL of complete growth media (cancer cells) or low serum growth media (fibroblasts) and incubated overnight. […] Afterwards, cell culture media was collected, cell debris were removed by centrifugation the concentration of VEGF in the cell culture supernatants was measured using the human/mouse VEGF immunoassay Quantikine ELISA kit (R&D systems, Minneapolis, Minn., USA) according to the manufacturer's instructions. For the intracellular VEGF detection, total protein concentration was determined by BCA (Pierce Chemical, USA) and VEGF levels determined using the same kit described above.

HIF-1α = assay: Ubiquitination assay, TUBE pull-down of polyubiquitinated HIF-1α; type: cell-based, human; settings: HDF, hypoxia
Procedure: Given HIF-1α stability is known to be regulated at the protein level by ubiquitination, we investigated whether USP7 inhibition modulates HIF-1α polyubiquitination. […] Cells were harvested, lysed and polyubiquitinated proteins pulled down using two types of Tetra Ubiquitin Binding Entities (TUBES); with equal affinity for K48/K63 or 10 times more affinity for […]. Samples were analysed by immuno-blot using a HIF-1α antibody. […] These findings indicate that USP7 inhibition results in K48 polyubiquitination of HIF-1α and consequently, its proteasomal-mediated degradation.
Cells were lysed in a buffer containing 50 mM Tris-HCl, pH 7.5, 150 mM NaCl, 1 mM EDTA, 1% NP-40, 10% Glycerol, 50 mM NaF, 5 mM sodium pyrophosphate, 10 mM glycerol phosphate, 1 mM sodium orthovanadate, protease and phosphatase inhibitor tablet and 50 uM PR-619. Lysates were pre-cleared by centrifugation at 4° C. for 15 mins at 16,000× g and protein concentration determined using BCA method. 20 ul of samples was taken as input. Pre-cleared supernatant containing 0.5 mg of total protein was added to 20 ul equilibrated Agarose-TUBE 1 or TUBE 2 beads (Life Sensors) and incubated for 2 hours at 4° C. on a rocker platform. Beads were collected by low speed centrifugation (1000-5000× g, 4° C.) for 5 minutes and supernatant taken as FT. Beads were washed twice with 1 ml TBS-T (20 mM Tris-HCl, pH 8.0, 0.15M NaCl, 0.1% Tween-20) and collected by low speed centrifugation. Finally, beads were resuspended in 30 ul of SDS reducing sample buffer and boiled for 10 min at 95° C.

MMP-2 = MMP-2 in supernatants of HDF and HUVEC co-culture (Luminex); type: cell-based, human; settings: supernatants after 14 days
Procedure: Cell culture supernatants from tube formation were collected and MMP-2 levels were measured using Luminex®.
Next, the underlying mechanism of tube formation inhibition was investigated. […] To determine whether secretion of MMP-2 is modulated by USP7 inhibition, supernatants from HUVEC and HDF co-cultures were collected after 14 days.
Concentrations of MMP2 and MMP7 were determined in cell culture supernatants in triplicates using Luminex human cytokine/chemokine multiplex kits (Millipore, St. Charles, Mo., USA) according to the manufacturer's protocol.

tumour VEGFA mRNA = assay: RNA-seq of syngeneic CT-26 tumour samples; type: in vivo, mouse
Procedure: Finally, mode of action of AD-04 in vivo was analysed by RNA-seq. […] Moreover, individual genes within HIF1A pathway were differentially modulated upon USP7 inhibition.

LM CLhep (r) = type: in vitro ADME, rat
CYP3A4 = CYP3A4 (Homo sapiens, UniProt P08684); assay: TDI shift CYP3A4; type: in vitro ADME; settings: value in brackets; shift N/A
PPB Fu (h) = type: in vitro ADME; settings: human, plasma
CT-26 tumours = assay: Flow cytometry of tumour infiltrating immune cells, CT-26 model (ADC-159); type: in vivo, mouse; settings: ADC-159 alone or in combination with ICIs, 13 days
Procedure: FIG. 40: USP7 inhibitor ADC-159 modulates the tumour microenvironment immune compartment in vivo.
Harvested tumours were collected in HBSS medium, minced and incubated 30 minutes at 37° C. in non-enzymatic cell dissociation buffer followed by mechanical dissociation through a 70 μm filter. Viable cells were then enriched using Ficoll® gradient. All cells suspensions were count and one million viable cells were seeded in 96-well plates in 100 μL of Staining Buffer for acquisition. Non-specific binding was performed using mouse FcR blocking reagent. Viobility 405/452 Fixable Dye (Miltenyi Biotec) was used to assess cell viability. The antibodies directed against the CD45, CD335 (Nkp46), FoxP3 CD8a, CD4, CD3e, CD19, F4/80, CD11c, CD11 b (Miltenyi Biotec), Ly6G and Ly6C (Biolegend) were added. The stained cells were analyzed with a Fortessa X20 cytometer (BD Biosciences).

LM CLhep (d) = type: in vitro ADME, dog
PPB Fu (r) = type: in vitro ADME; settings: rat, plasma
hERG = hERG (Homo sapiens, UniProt Q12809); assay: hERG
LM CLhep (m) = type: in vitro ADME, mouse

hERG, sequence (Q12809 whole entry): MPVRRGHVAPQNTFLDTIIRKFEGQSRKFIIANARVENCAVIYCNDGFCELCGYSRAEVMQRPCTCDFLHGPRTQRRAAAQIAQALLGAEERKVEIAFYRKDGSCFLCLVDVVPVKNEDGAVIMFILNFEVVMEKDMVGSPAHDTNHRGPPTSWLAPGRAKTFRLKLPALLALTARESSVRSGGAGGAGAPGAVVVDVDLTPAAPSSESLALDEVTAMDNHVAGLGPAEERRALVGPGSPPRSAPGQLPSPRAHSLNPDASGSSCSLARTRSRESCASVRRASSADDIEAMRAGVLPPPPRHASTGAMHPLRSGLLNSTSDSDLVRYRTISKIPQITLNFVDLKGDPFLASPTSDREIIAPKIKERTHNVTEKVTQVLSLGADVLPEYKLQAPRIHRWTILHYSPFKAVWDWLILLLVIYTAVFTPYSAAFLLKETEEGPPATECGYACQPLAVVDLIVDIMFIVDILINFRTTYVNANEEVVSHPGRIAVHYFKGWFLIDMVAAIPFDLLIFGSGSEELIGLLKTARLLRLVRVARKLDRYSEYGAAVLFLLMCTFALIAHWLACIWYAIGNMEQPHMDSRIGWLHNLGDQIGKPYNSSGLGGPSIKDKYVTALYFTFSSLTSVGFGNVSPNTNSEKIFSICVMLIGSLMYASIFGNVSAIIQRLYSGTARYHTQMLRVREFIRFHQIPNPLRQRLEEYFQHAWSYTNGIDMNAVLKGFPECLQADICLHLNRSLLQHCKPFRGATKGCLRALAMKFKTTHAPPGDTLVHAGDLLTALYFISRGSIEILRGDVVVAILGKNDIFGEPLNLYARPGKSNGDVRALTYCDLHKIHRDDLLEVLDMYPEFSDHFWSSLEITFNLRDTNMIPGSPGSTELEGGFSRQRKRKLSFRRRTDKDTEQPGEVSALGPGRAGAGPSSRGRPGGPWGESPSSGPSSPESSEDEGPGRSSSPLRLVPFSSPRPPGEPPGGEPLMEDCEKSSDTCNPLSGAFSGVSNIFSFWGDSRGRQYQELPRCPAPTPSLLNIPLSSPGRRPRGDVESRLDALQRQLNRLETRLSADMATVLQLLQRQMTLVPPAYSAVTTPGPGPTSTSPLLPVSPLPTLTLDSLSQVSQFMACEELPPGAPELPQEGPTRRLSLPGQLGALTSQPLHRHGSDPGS
CYP3A4, sequence (P08684 whole entry): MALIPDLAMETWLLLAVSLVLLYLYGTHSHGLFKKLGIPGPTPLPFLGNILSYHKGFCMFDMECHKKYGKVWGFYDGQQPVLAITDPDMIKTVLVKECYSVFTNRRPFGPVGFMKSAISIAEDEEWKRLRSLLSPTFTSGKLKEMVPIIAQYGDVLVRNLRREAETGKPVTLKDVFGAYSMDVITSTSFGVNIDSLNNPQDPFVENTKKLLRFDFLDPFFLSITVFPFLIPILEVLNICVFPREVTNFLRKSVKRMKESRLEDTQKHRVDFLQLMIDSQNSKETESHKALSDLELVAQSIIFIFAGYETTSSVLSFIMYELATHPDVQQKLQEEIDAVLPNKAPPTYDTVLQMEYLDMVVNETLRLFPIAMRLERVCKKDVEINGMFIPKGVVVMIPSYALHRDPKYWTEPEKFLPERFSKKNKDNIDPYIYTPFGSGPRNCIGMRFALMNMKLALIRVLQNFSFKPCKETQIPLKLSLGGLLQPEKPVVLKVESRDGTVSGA

Compound | number of invading cells ([1]; cancer cells and immortalized fibroblasts) | invasion through Matrigel basement membrane ([1]; primary fibroblast, compared to vehicle-treated cells) | intracellular VEGF levels ([2]; cancer cells or immortalized fibroblasts) | intracellular VEGF levels ([2]; primary fibroblast lysates) | K63 specific polyubiquitination of HIF-1α (HIF-1α; versus DMSO control) | K63/K48 polyubiquitinated HIF-1α (HIF-1α; AD-04 1 μM, MG132 10 μM, 1 hour) | MMP-2 levels (MMP-2) | tumour VEGFA long isoform mRNA (tumour VEGFA mRNA) | tumour VEGFA short isoform mRNA (tumour VEGFA mRNA) | LM CLhep (r) (LM CLhep (r)) | IC50 (CYP3A4) | fraction unbound (PPB Fu (h)) | recruitment of cytotoxic lymphocytes into the tumour (CT-26 tumours) | LM CLhep (d) (LM CLhep (d)) | fraction unbound (PPB Fu (r)) | IC50 (hERG) | LM CLhep (m) (LM CLhep (m))
C[C@H](CC(=O)N1CCC(O)(Cn2cnc3c(-c4ccc(CN)cc4)n(C)nc3c2=O)CC1)c1ccccc1 [AD-04, (R)-3-(4-(Aminomethyl)phenyl)-6-((4-hydroxy-1-(3-phenylbutanoyl)piperidin-4-yl)methyl)-2-methyl-2H-pyrazolo[4,3-d]pyrimidin-7(6H)-one] | did not change | greatly reduced | not in cancer cells or immortalized fibroblasts | decreases | no difference | enhanced the accumulation | decreases | increase | decrease |  |  |  |  |  |  |  | 
CC1(C(=O)N2CCC(O)(Cn3cnc4c(cc(Cl)n4-c4ccc5c(c4)CCO5)c3=O)CC2)CC1 [ADC-159, 6-Chloro-7-(2,3-dihydrobenzofuran-5-yl)-3-((4-hydroxy-1-(1-methylcyclopropane-1-carbonyl)piperidin-4-yl)methyl)-3,7-dihydro-4H-pyrrolo[2,3-d]pyrimidin-4-One] |  |  |  |  |  |  |  |  |  | 27 | > 20 µM | 0.15 | increases recruitment | 22 | 0.12 | 15.6 µM | 55

Source: patent US20230088286A1, “USP7 INHIBITOR FOR USE IN THE TREATMENT OF CANCER” (ALMAC DISCOVERY LIMITED, priority 2020, published 2023)
